In patent US20040001827A1, “Serum albumin binding peptides for tumor targeting” (priority 2002, published 2004):
Read-outs that look alike come from different tables or passages of the source. Where a SMILES comes first, the peptide text is derived from it. Bridges are numbered along the chain shown (N, C = ends).

Biological target: T1, rabbit albumin (Oryctolagus cuniculus, UniProt P49065)
T1 construct: purchased Sigma, St. Louis Mo
Assay: SA08b binding (peptide competition) assay, rabbit albumin
Details: for improvement in IC50 relative to core sequence (SA34 and SA19): rabbit albumin
Source text: Plates were blocked as described above.
Peptides corresponding to identified phage sequences were synthesized and their affinity for rat, rabbit or mouse albumin measured using the SA08b binding assay.

T1 sequence (P49065 25-608): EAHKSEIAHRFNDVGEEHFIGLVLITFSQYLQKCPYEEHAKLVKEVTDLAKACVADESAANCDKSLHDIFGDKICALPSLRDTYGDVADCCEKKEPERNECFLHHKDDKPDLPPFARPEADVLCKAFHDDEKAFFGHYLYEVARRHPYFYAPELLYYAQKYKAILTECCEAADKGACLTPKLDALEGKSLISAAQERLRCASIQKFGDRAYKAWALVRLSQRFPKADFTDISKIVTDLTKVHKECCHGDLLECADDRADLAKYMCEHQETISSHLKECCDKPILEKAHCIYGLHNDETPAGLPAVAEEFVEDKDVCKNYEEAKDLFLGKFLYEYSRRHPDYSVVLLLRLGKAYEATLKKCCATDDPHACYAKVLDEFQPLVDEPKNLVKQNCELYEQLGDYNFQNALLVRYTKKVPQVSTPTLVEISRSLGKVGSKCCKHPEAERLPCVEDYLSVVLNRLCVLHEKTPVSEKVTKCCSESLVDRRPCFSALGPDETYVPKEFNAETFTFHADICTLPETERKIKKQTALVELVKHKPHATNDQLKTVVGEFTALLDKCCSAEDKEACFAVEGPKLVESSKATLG

| Compound | improvement in IC50 relative to core sequence (SA34 and SA19) | IC50 | other results |
| --- | --- | --- | --- |
| CC[C@H](C)[C@H](NC(=O)[C@H](CC(C)C)NC(=O)[C@H](CCCNC(=N)N)NC(C)=O)C(=O)N[C@@H](CCC(=O)O)C(=O)N[C@@H](CC(=O)O)C(=O)N[C@H](C(=O)N[C@H]1CSSC[C@@H](C(=O)N[C@@H](CC(C)C)C(=O)N[C@@H](Cc2c[nH]c3ccccc23)C(=O)N[C@@H](CCC(=O)O)C(=O)N[C@@H](CC(=O)O)C(N)=O)NC(=O)CNC(=O)[C@H](Cc2c[nH]c3ccccc23)NC(=O)[C@H](CCCNC(=N)N)NC(=O)[C@@H]2CCCN2C(=O)[C@H](CC(C)C)NC1=O)[C@@H](C)CC [SA22] (Ac-RLIEDICLPRWGCLWED-NH2; disulfide 7-13) | 60 fold |  |  |
| CC[C@H](C)[C@H](NC(=O)[C@H](CC(=O)O)NC(C)=O)C(=O)N[C@H]1CSSC[C@@H](C(=O)N[C@@H](CC(C)C)C(=O)N[C@@H](Cc2c[nH]c3ccccc23)C(=O)N[C@@H](CCC(=O)O)C(=O)N[C@@H](CC(=O)O)C(N)=O)NC(=O)CNC(=O)[C@H](Cc2c[nH]c3ccccc23)NC(=O)[C@H](CCCNC(=N)N)NC(=O)[C@@H]2CCCN2C(=O)[C@H](CC(C)C)NC1=O [SA26] (Ac-DICLPRWGCLWED-NH2; disulfide 3-9) | about 8.6 fold |  |  |
| CC(=O)N[C@H]1CSSC[C@@H](C(=O)N[C@@H](CC(C)C)C(=O)N[C@@H](Cc2c[nH]c3ccccc23)C(=O)N[C@@H](CCC(=O)O)C(=O)N[C@@H](CC(=O)O)C(N)=O)NC(=O)CNC(=O)[C@H](Cc2c[nH]c3ccccc23)NC(=O)[C@H](CCCNC(=N)N)NC(=O)[C@@H]2CCCN2C(=O)[C@H](CC(C)C)NC1=O [SA28] (Ac-CLPRWGCLWED-NH2; disulfide 1-7) |  | > 400 µM |  |
| CC[C@H](C)[C@H](NC(=O)[C@H](CC(C)C)NC(=O)[C@H](CCCNC(=N)N)NC(C)=O)C(=O)N[C@@H](CCC(=O)O)C(=O)N[C@@H](CC(=O)O)C(=O)N[C@H](C(=O)N[C@H]1CSSC[C@@H](C(=O)N[C@@H](CC(C)C)C(N)=O)NC(=O)CNC(=O)[C@H](Cc2c[nH]c3ccccc23)NC(=O)[C@H](CCCNC(=N)N)NC(=O)[C@@H]2CCCN2C(=O)[C@H](CC(C)C)NC1=O)[C@@H](C)CC [SA33] (Ac-RLIEDICLPRWGCL-NH2; disulfide 7-13) | approximately 6 fold |  |  |
| CC[C@H](C)[C@H](NC(=O)[C@H](CC(=O)O)NC(C)=O)C(=O)N[C@H]1CSSC[C@@H](C(=O)N[C@@H](CC(C)C)C(N)=O)NC(=O)CNC(=O)[C@H](Cc2c[nH]c3ccccc23)NC(=O)[C@H](CCCNC(=N)N)NC(=O)[C@@H]2CCCN2C(=O)[C@H](CC(C)C)NC1=O [SA34] (Ac-DICLPRWGCL-NH2; disulfide 3-9) |  | ~25 µM |  |
| CC[C@H](C)[C@H](NC(C)=O)C(=O)N[C@H]1CSSC[C@@H](C(N)=O)NC(=O)CNC(=O)[C@H](Cc2c[nH]c3ccccc23)NC(=O)[C@H](CCCNC(=N)N)NC(=O)[C@@H]2CCCN2C(=O)[C@H](CC(C)C)NC1=O [SA36] (Ac-ICLPRWGC-NH2; disulfide 2-8) |  |  | IC50 (Table 9, rabbit albumin, peptide truncation series, read-out: IC50): > 250 µM |
